Experimental data taken from PubChem BioAssay AID248 (DTP/NCI, 2004).
“And” between values parts separate entries of the source, which are not always exact repeats. Equal entries are not always repeated. Inconclusive results and toxic doses are left out. Rule as the data show it: active = T/C of 150% or more; inactive = T/C below 125%.

System: L1210 leukemia ip in BDF1 mice, survival T/C
Assay: NCI In Vivo Anticancer Drug Screen. Data for tumor model L1210 Leukemia (intraperitoneal) in B6D2F1 (BDF1) mice
Details: endpoint: mean survival time, higher = longer survival
Procedure, shortened: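 Antitumor effect is assessed in tumor-bearing animals. Survival in the compound arm is compared with a vehicle-dosed control arm and expressed as their quotient.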

[1] = dose: 25.0 mg/kg/injection, schedule: Q01DX009 (ip), vehicle: Klucel (hydroxypropylcellulose) (HPC)
[2] = dose: 50.0 mg/kg/injection, schedule: Q01DX009 (ip), vehicle: Klucel (hydroxypropylcellulose) (HPC)
[3] = dose: 100.0 mg/kg/injection, schedule: Q04DX003 (ip), vehicle: Klucel (hydroxypropylcellulose) (HPC)
[4] = dose: 100.0 mg/kg/injection, schedule: Q01DX001 (ip), vehicle: carboxymethylcellulose (CMC)
[5] = dose: 200.0 mg/kg/injection, schedule: Q01DX001 (ip), vehicle: carboxymethylcellulose (CMC)
[6] = dose: 400.0 mg/kg/injection, schedule: Q01DX001 (ip), vehicle: carboxymethylcellulose (CMC)
[7] = dose: 100.0 mg/kg/injection, schedule: Q01DX001 (ip), vehicle: saline
[8] = dose: 200.0 mg/kg/injection, schedule: Q01DX001 (ip), vehicle: saline
[9] = dose: 400.0 mg/kg/injection, schedule: Q01DX001 (ip), vehicle: saline
[10] = dose: 100.0 mg/kg/injection, schedule: Q04DX003 (ip), vehicle: saline
[11] = dose: 200.0 mg/kg/injection, schedule: Q04DX003 (ip), vehicle: saline
[12] = dose: 100.0 mg/kg/injection, schedule: Q01DX009 (ip), vehicle: saline with Tween-80
[13] = dose: 200.0 mg/kg/injection, schedule: Q01DX009 (ip), vehicle: saline with Tween-80
[14] = dose: 400.0 mg/kg/injection, schedule: Q01DX009 (ip), vehicle: saline with Tween-80
[15] = dose: 100.0 mg/kg/injection, schedule: Q04DX003 (ip), vehicle: saline with Tween-80
[16] = dose: 200.0 mg/kg/injection, schedule: Q04DX003 (ip), vehicle: saline with Tween-80
[17] = dose: 400.0 mg/kg/injection, schedule: Q04DX003 (ip), vehicle: saline with Tween-80
[18] = dose: 50.0 mg/kg/injection, schedule: Q01DX009 (ip), vehicle: saline with Tween-80
[19] = dose: 100.0 mg/kg/injection, schedule: Q04DX002 (ip), vehicle: saline

Measured: T/C

O=C(CCN1CC1)OCCc1ccccc1
inactive: dose: 20.0 mg/kg/injection, schedule: Q04DX003 (ip), vehicle: Klucel (hydroxypropylcellulose) (HPC) 98 % of control | [1] 111 % of control | dose: 40.0 mg/kg/injection, schedule: Q04DX003 (ip), vehicle: Klucel (hydroxypropylcellulose) (HPC) 95 % of control | [2] 97 % of control | dose: 80.0 mg/kg/injection, schedule: Q04DX003 (ip), vehicle: Klucel (hydroxypropylcellulose) (HPC) 101 % of control | [3] 98 % of control

CCOC(=O)CCCc1ccc(N=NN(C)C(C)CC)cc1 (stereo unspecified)
inactive: [4] 111 % of control | [5] 102 % of control | [6] 107 % of control

NC(CO)C(=O)O (stereo unspecified)
inactive: [4] 95 % of control | [7] 91 % of control and 104 % of control | [5] 101 % of control | [8] 92 % of control and 101 % of control | [6] 103 % of control | [9] 105 % of control and 95 % of control

CCCCCCOP(=O)(CCCCCC)OCCCCCC
inactive: dose: 13.3 mg/kg/injection, schedule: Q01DX Z (ip), vehicle: methylcellulose (MC) 96 % of control | dose: 20.0 mg/kg/injection, schedule: Q01DX Z (ip), vehicle: methylcellulose (MC) 102 % of control | [1] 93 % of control | dose: 25.0 mg/kg/injection, schedule: Q04DX003 (ip), vehicle: Klucel (hydroxypropylcellulose) (HPC) 94 % of control | dose: 30.0 mg/kg/injection, schedule: Q01DX Z (ip), vehicle: methylcellulose (MC) 95 % of control | [2] 101 % of control | dose: 50.0 mg/kg/injection, schedule: Q04DX003 (ip), vehicle: Klucel (hydroxypropylcellulose) (HPC) 89 % of control | dose: 100.0 mg/kg/injection, schedule: Q01DX009 (ip), vehicle: Klucel (hydroxypropylcellulose) (HPC) 98 % of control | [3] 103 % of control

CCCCCCCCCCCCCCCC[N+]1(C)CCN(SN2CC[N+](C)(CCCCCCCCCCCCCCCC)CC2)CC1
inactive: dose: 25.0 mg/kg/injection, schedule: Q01DX009 (ip), vehicle: saline 98 % of control | dose: 50.0 mg/kg/injection, schedule: Q01DX009 (ip), vehicle: saline 105 % of control | [10] 86 % of control

Nc1nc2c(ncn2-c2cccc(NS(=O)(=O)c3cccc(S(=O)(=O)F)c3)c2)c(=O)[nH]1
inactive: dose: 25.0 mg/kg/injection, schedule: Q01DX001 (ip), vehicle: Klucel (hydroxypropylcellulose) (HPC) 96 % of control | dose: 50.0 mg/kg/injection, schedule: Q01DX001 (ip), vehicle: Klucel (hydroxypropylcellulose) (HPC) 98 % of control | dose: 100.0 mg/kg/injection, schedule: Q01DX001 (ip), vehicle: Klucel (hydroxypropylcellulose) (HPC) 94 % of control

COC(=O)C(C)CN1CCCCCC1 (stereo unspecified)
inactive: dose: 100.0 mg/kg/injection, schedule: Q01DX009 (ip), vehicle: saline 97 % of control | [10] 100 % of control | dose: 200.0 mg/kg/injection, schedule: Q01DX009 (ip), vehicle: saline 104 % of control | [11] 104 % of control | dose: 400.0 mg/kg/injection, schedule: Q01DX009 (ip), vehicle: saline 95 % of control | dose: 400.0 mg/kg/injection, schedule: Q04DX003 (ip), vehicle: saline 102 % of control

O=C(O)CC1CCN(C(=O)c2ccccc2)C(Cc2c[nH]c3ccccc23)C1O (stereo unspecified)
inactive: [7] 97 % of control | [8] 101 % of control | [9] 92 % of control

CCCCCCC(=O)/C=C/c1cccc(Cl)c1
inactive: [12] 88 % of control | [13] 88 % of control | [14] 95 % of control

CC(C)(C)C(=O)CC(=O)C(C)(C)C.CC(C)(C)C(=O)CC(=O)C(C)(C)C.CC(C)(C)C(=O)CC(=O)C(C)(C)C.CC(C)(C)C(=O)CC(=O)C(C)(C)C.[Th]
inactive: [15] 96 % of control | [16] 98 % of control | [17] 90 % of control

C=CCCC/C(C)=N/NS(=O)(=O)c1ccc(C)cc1
inactive: [18] 112 % of control | [12] 92 % of control | [13] 106 % of control

O=C(COc1cc(Cl)c(Cl)cc1Cl)Nc1ccccc1
inactive: [19] 92 % of control | dose: 200.0 mg/kg/injection, schedule: Q04DX002 (ip), vehicle: saline 100 % of control | dose: 400.0 mg/kg/injection, schedule: Q04DX002 (ip), vehicle: saline 103 % of control

O=C(CC1CCCCN1)CC1CCCCN1 (stereo unspecified)
inactive: [10] 92 % of control | [11] 101 % of control

O=C(CCl)N1CCN(C(=O)CCl)c2ccccc21
inactive: [7] 94 % of control | [8] 94 % of control | [9] 97 % of control

[O-][n+]1c(Cl)cc(Cl)c2ccccc21
inactive: dose: 25.0 mg/kg/injection, schedule: Q01DX009 (ip), vehicle: saline with Tween-80 95 % of control | [18] 114 % of control | [12] 97 % of control and 102 % of control

CCOC(=O)NC1CC1
inactive: [7] 93 % of control | [8] 95 % of control | [9] 101 % of control

NCCSc1ccc(Br)cc1
inactive: dose: 75.0 mg/kg/injection, schedule: Q01DX001 (ip), vehicle: other 100 % of control | dose: 150.0 mg/kg/injection, schedule: Q01DX001 (ip), vehicle: other 102 % of control

c1cc(CCCc2ccncc2)ccn1
inactive: dose: 25.0 mg/kg/injection, schedule: Q04DX002 (ip), vehicle: saline 108 % of control | dose: 50.0 mg/kg/injection, schedule: Q04DX002 (ip), vehicle: saline 95 % of control | [19] 95 % of control

C[N+]1(Cc2ccccc2)C2CCC1C(=O)N(Cc1ccccc1)C2=O (stereo unspecified)
inactive: dose: 75.0 mg/kg/injection, schedule: Q01DX001 (ip), vehicle: saline 103 % of control | dose: 150.0 mg/kg/injection, schedule: Q01DX001 (ip), vehicle: saline 116 % of control

C=CCNC(=O)c1ccccc1
inactive: dose: 25.0 mg/kg/injection, schedule: Q04DX002 (ip), vehicle: saline with Tween-80 97 % of control | dose: 50.0 mg/kg/injection, schedule: Q04DX002 (ip), vehicle: saline with Tween-80 93 % of control | dose: 100.0 mg/kg/injection, schedule: Q04DX002 (ip), vehicle: saline with Tween-80 111 % of control and 91 % of control

O=C(CCCc1ccccc1)N1CCOCC1
inactive: dose: 100.0 mg/kg/injection, schedule: Q01DX009 (ip), vehicle: saline sonified 94 % of control | dose: 200.0 mg/kg/injection, schedule: Q01DX009 (ip), vehicle: saline sonified 96 % of control | dose: 400.0 mg/kg/injection, schedule: Q01DX009 (ip), vehicle: saline sonified 102 % of control

COC1OC(COC(=O)c2ccccc2)C(OC(=O)Nc2ccccc2)C1O (stereo unspecified)
inactive: [12] 90 % of control | [15] 93 % of control | [13] 100 % of control | [16] 98 % of control | [14] 95 % of control | [17] 92 % of control
